Patent US12398154B2, “Azaquinazoline pan-KRas inhibitors” (Mirati Therapeutics, Inc., priority 2020, dated 2025)

Columns and labels:
KRas G12D = KRas G12D (Homo sapiens, UniProt P01116, G12D); assay: biochemical;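 further: TR-FRET displacement binding assay on KRas, read after a one-hour incubation at room temperature, IC50 fitted from percent-of-control values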
Procedure: (§1) The ability of a compound to bind to KRas was measured using a TR-FRET displacement assay. […] After a 60-minute incubation at room temperature, the reaction was measured using a BMG LABTECH CLARIO star Plus via TR-FRET. […] The POC values were fit to a 4-parameter IC50 equation and the IC50 value reported.

KRas G12V = KRas G12V (Homo sapiens, UniProt P01116, G12V); assay: biochemical;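 further: KRas binding measured by TR-FRET displacement at room temperature, IC50 fitted from percent of control values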
Procedure: as §1

KRas G12R = KRas G12R (Homo sapiens, UniProt P01116, G12R); assay: biochemical;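 further: TR-FRET displacement assay of compound binding to KRas, read after one hour at room temperature, potency from a four-parameter fit of percent-of-control values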
Procedure: as §1

pERK in MKN1 cells = assay: Inhibition of KRas phosphorylation of ERK (Cisbio HTRF pERK assay); details: Homo sapiens, MKN-1, 3 h, read-out: Inhibition (HTRF IC50) of KRas-mediated Phosphorylation of ERK, MKN1
pERK in PSN1 cells = assay: as above; details: Homo sapiens, PSN1, 3 h, read-out: Inhibition (HTRF IC50) of KRas-mediated Phosphorylation of ERK, PSN1
pERK in ASPC1 cells = assay: as above; details: Homo sapiens, ASPC1, read-out: Inhibition (HTRF IC50) of KRas-mediated Phosphorylation of ERK, AsPC-1
pERK in H727 cells = assay: as above; details: Homo sapiens, NCI-H727, read-out: Inhibition (HTRF IC50) of KRas-mediated Phosphorylation of ERK, H727
pERK in HCT116 cells = assay: as above; details: Homo sapiens, HCT-116, read-out: Inhibition (HTRF IC50) of KRas-mediated Phosphorylation of ERK, HCT116

Chain of KRas G12V (P01116 1-169 isoform P01116-2 G12V): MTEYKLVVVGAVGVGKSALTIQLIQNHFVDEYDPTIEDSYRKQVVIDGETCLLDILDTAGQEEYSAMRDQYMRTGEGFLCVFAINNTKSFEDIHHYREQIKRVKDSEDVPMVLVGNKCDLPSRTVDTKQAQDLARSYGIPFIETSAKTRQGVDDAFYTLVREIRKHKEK
Chain of KRas G12R (P01116 1-169 isoform P01116-2 G12R): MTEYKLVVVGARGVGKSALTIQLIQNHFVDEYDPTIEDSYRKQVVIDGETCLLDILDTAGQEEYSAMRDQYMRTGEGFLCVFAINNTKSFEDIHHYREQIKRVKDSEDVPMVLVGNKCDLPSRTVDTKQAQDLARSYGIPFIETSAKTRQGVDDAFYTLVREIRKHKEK
Chain of KRas G12D (P01116 1-169 isoform P01116-2 G12D): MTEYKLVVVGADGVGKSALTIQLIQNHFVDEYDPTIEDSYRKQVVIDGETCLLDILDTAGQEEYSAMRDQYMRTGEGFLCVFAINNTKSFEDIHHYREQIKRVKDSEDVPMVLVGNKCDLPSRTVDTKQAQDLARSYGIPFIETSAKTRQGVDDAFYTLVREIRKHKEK

SMILES	IC50 (KRas G12D)	IC50 (KRas G12V)	IC50 (KRas G12R)	IC50 (pERK in MKN1 cells)	IC50 (pERK in PSN1 cells)	IC50 (pERK in ASPC1 cells)	IC50 (pERK in H727 cells)	IC50 (pERK in HCT116 cells)
CCc1c(F)ccc2cc(O)cc(-c3ncc4c(N5CCCC(N6CCCS6(=O)=O)C5)nc(OC[C@@]56CCCN5C[C@H](F)C6)nc4c3F)c12 (stereo partly drawn) [Example 348, 2-(1-(7-(8-ethyl-7-fluoro-3-hydroxynaphthalen-1-yl)-8-fluoro-2-(((2R,7aS)-2-fluorotetrahydro-1H-pyrrolizin-7a(5H)-yl)methoxy)pyrido[4,3-d]pyrimidin-4-yl)piperidin-3-yl)isothiazolidine 1,1-dioxide]	6 nM	3 nM	≤ 2 nM	7 nM	≥ 10000 nM	275 nM	273 nM	245 nM
CCc1c(F)ccc2cc(O)cc(-c3ncc4c(NC5CCS(=O)(=O)C5)nc(OC[C@@]56CCCN5C[C@H](F)C6)nc4c3F)c12 (stereo partly drawn) [Example 349, 3-((7-(8-ethyl-7-fluoro-3-hydroxynaphthalen-1-yl)-8-fluoro-2-(((2R,7aS)-2-fluorotetrahydro-1H-pyrrolizin-7a(5H)-yl)methoxy)pyrido[4,3-d]pyrimidin-4-yl)amino)tetrahydrothiophene 1,1-dioxide]	20 nM	4 nM	7 nM	149 nM	≥ 10000 nM	475 nM	1860 nM	2250 nM
CCc1c(F)ccc2cc(O)cc(-c3ncc4c(N5CC6CCC(C6)C5)nc(OC[C@@]56CCCN5C[C@H](F)C6)nc4c3F)c12 [Example 350, 4-(4-(3-azabicyclo[3.2.I]octan-3-yl)-8-fluoro-2-(((2R,7aS)-2-fluorohexahydro-1H-pyrrolizin-7a-yl)methoxy)pyrido[4,3-d]pyrimidin-7-yl)-5-ethyl-6-fluoronaphthalen-2-ol]	30 nM	8 nM	8 nM	209 nM	≥ 10000 nM	241 nM	334 nM	797 nM
O=C1NC(=O)C2(CCCN(c3nc(OC[C@@]45CCCN4C[C@H](F)C5)nc4c(F)c(-c5cc(O)cc6ccc(F)c(Br)c56)ncc34)C2)N1 (stereo partly drawn) [Example 410, 7-(7-(8-bromo-7-fluoro-3-hydroxynaphthalen-1-yl)-8-fluoro-2-(((2R,7aS)-2-fluorohexahydro-1H-pyrrolizin-7a-yl)methoxy)pyrido[4,3-d]pyrimidin-4-yl)-1,3,7-triazaspiro[4.5]decane-2,4-dione]	≤ 2 nM	≤ 2 nM	≤ 2 nM	157 nM	3150 nM	365 nM	603 nM	602 nM
O=C1NC(=O)[C@]2(CCCN(c3nc(OC[C@@]45CCCN4C[C@H](F)C5)nc4c(F)c(-c5cc(O)cc6ccc(F)c(Cl)c56)ncc34)C2)N1 [Example 413, (R)-7-(7-(8-chloro-7-fluoro-3-hydroxynaphthalen-1-yl)-8-fluoro-2-(((2R,7aS)-2-fluorohexahydro-1H-pyrrolizin-7a-yl)methoxy)pyrido[4,3-d]pyrimidin-4-yl)-1,3,7-triazaspiro[4.5]decane-2,4-dione]	≤ 2 nM	≤ 2 nM	3 nM	33 nM	2530 nM	479 nM	408 nM	484 nM
NS(=O)(=O)CC1CCCN(c2nc(OC[C@@]34CCCN3C[C@H](F)C4)nc3c(F)c(-c4cc(O)cc5ccc(F)c(Cl)c45)ncc23)C1 (stereo partly drawn) [Example 414, 1-(1-(7-(8-chloro-7-fluoro-3-hydroxynaphthalen-1-yl)-8-fluoro-2-(((2R,7aS)-2-fluorotetrahydro-1H-pyrrolizin-7a(5H)-yl)methoxy)pyrido[4,3-d]pyrimidin-4-yl)piperidin-3-yl)methanesulfonamide]	≤ 2 nM	≤ 2 nM	4 nM	32 nM	3480 nM	1330 nM	269 nM	514 nM

Further lines, results first:

IC50 (KRas G12D)	IC50 (KRas G12V)	IC50 (KRas G12R)	IC50 (pERK in MKN1 cells)	IC50 (pERK in PSN1 cells)	IC50 (pERK in ASPC1 cells)	IC50 (pERK in H727 cells)	IC50 (pERK in HCT116 cells)	SMILES
≤ 2 nM	3 nM	4 nM	24 nM	2880 nM	695 nM	377 nM	487 nM	CCc1c(F)ccc2cc(O)cc(-c3ncc4c(N5CCCCC6(C5)NC(=O)NC6=O)nc(OC[C@@]56CCCN5C[C@H](F)C6)nc4c3F)c12 (stereo partly drawn) [Example 338, 7-(7-(8-ethyl-7-fluoro-3-hydroxynaphthalen-1-yl)-8-fluoro-2-(((2R,7aS)-2-fluorotetrahydro-1H-pyrrolizin-7a(5H)-yl)methoxy)pyrido[4,3-d]pyrimidin-4-yl)-1,3,7-triazaspiro[4.6]undecane-2,4-dione]
≤ 2 nM	3 nM	≤ 2 nM	86 nM	≥ 10000 nM	472 nM	1040 nM	1320 nM	CCc1c(F)ccc2cc(O)cc(-c3ncc4c(N5CCCn6nc(CO)cc6C5)nc(OC[C@@]56CCCN5C[C@H](F)C6)nc4c3F)c12 [Example 341, 5-ethyl-6-fluoro-4-(8-fluoro-2-(((2R,7aS)-2-fluorohexahydro-1H-pyrrolizin-7a-yl)methoxy)-4-(2-(hydroxymethyl)-7,8-dihydro-4H-pyrazolo[1,5-a][1,4]diazepin-5(6H)-yl)pyrido[4,3-d]pyrimidin-7-yl)naphthalen-2-ol]
≤ 2 nM	≤ 2 nM	≤ 2 nM	60 nM	4100 nM	345 nM	782 nM	576 nM	CCc1c(F)ccc2cc(O)cc(-c3ncc4c(N5CCCC6(C5)NC(=O)NC6=O)nc(OCC5(CN(C)C)CC5)nc4c3F)c12 (stereo not shown) [Example 359, 7-(2-((1-((dimethylamino)methyl)cyclopropyl)methoxy)-7-(8-ethyl-7-fluoro-3-hydroxynaphthalen-1-yl)-8-fluoropyrido[4,3-d]pyrimidin-4-yl)-1,3,7-triazaspiro[4.5]decane-2,4-dione]
≤ 2 nM	≤ 2 nM	≤ 2 nM	58 nM	≥ 10000 nM	505 nM	244 nM	375 nM	CCc1c(F)ccc2cc(O)cc(-c3ncc4c(NCC5CC(=O)NC5=O)nc(OC[C@@]56CCCN5C[C@H](F)C6)nc4c3F)c12 (stereo partly drawn) [Example 367, 3-(((7-(8-ethyl-7-fluoro-3-hydroxynaphthalen-1-yl)-8-fluoro-2-(((2R,7aS)-2-fluorohexahydro-1H-pyrrolizin-7a-yl)methoxy)pyrido[4,3-d]pyrimidin-4-yl)amino)methyl)pyrrolidine-2,5-dione]
≤ 2 nM	3 nM	3 nM	336 nM	6020 nM	1180 nM	1370 nM	2250 nM	C#Cc1c(F)ccc2cc(O)cc(-c3ncc4c(N5CCCC6(CNC6=O)C5)nc(OC[C@@]56CCCN5C[C@H](F)C6)nc4c3F)c12 (stereo partly drawn) [Example 392, 6-(7-(8-ethynyl-7-fluoro-3-hydroxynaphthalen-1-yl)-8-fluoro-2-(((2R,7aS)-2-fluorohexahydro-1H-pyrrolizin-7a-yl)methoxy)pyrido[4,3-d]pyrimidin-4-yl)-2,6-diazaspiro[3.5]nonan-1-one]
≤ 2 nM	≤ 2 nM	≤ 2 nM	82 nM	9960 nM	162 nM	253 nM	1150 nM	OCC1COCCN(c2nc(OC[C@@]34CCCN3C[C@H](F)C4)nc3c(F)c(-c4cc(O)cc5ccc(F)c(Br)c45)ncc23)C1 (stereo partly drawn) [Example 401, 5-bromo-6-fluoro-4-(8-fluoro-2-(((2R,7aS)-2-fluorohexahydro-1H-pyrrolizin-7a-yl)methoxy)-4-(6-(hydroxymethyl)-1,4-oxazepan-4-yl)pyrido[4,3-d]pyrimidin-7-yl)naphthalen-2-ol]
≤ 2 nM	≤ 2 nM	≤ 2 nM	55 nM	≥ 10000 nM	136 nM	822 nM	1380 nM	O=C1NC(=O)C2CN(c3nc(OC[C@@]45CCCN4C[C@H](F)C5)nc4c(F)c(-c5cc(O)cc6ccc(F)c(Br)c56)ncc34)CC12 (stereo partly drawn) [Example 404, 5-(7-(8-bromo-7-fluoro-3-hydroxynaphthalen-1-yl)-8-fluoro-2-(((2R,7aS)-2-fluorohexahydro-1H-pyrrolizin-7a-yl)methoxy)pyrido[4,3-d]pyrimidin-4-yl)tetrahydropyrrolo[3,4-c]pyrrole-1,3(2H,3aH)-dione]
≤ 2 nM	≤ 2 nM	≤ 2 nM	94 nM	≥ 10000 nM	398 nM	593 nM	1180 nM	O=C1NCC2(CCCN(c3nc(OC[C@@]45CCCN4C[C@H](F)C5)nc4c(F)c(-c5cc(O)cc6ccc(F)c(Br)c56)ncc34)C2)N1 (stereo partly drawn) [Example 409, 7-(7-(8-bromo-7-fluoro-3-hydroxynaphthalen-1-yl)-8-fluoro-2-(((2R,7aS)-2-fluorohexahydro-1H-pyrrolizin-7a-yl)methoxy)pyrido[4,3-d]pyrimidin-4-yl)-1,3,7-triazaspiro[4.5]decan-2-one]
